# Test system: patients with prior myocardial infarction (CARE study)
# Experiment: CARE: association of SNPs with pravastatin treatment in cardiovascular events prevention (logistic regression, odds ratio pravastatin vs placebo by genotype; Table 8)
# Format: in vivo, human
# Settings: for Odds ratio pravastatin vs placebo: All Patients
# Source text: In order to identify genetic markers associated with acute coronary events (e.g. MI, stroke, unstable angina, congestive heart failure, etc.) or response to statin treatment for the prevention of coronary events, samples from the Cholesterol and Recurrent Events (CARE) study (a randomized multicentral double-blinded trial on secondary prevention of acute coronary events with pravastatin) (Sacks et al., 1991, Am. J. Cardiol. 68: 1436-1446) were genotyped. A well-documented myocardial infarction (MI) was one of the enrollment criteria for entry into the CARE study. Patients were enrolled in the CARE trial from 80 participating study centers. […] Patients were randomized to receive either 40 mg of pravastatin once daily or a matching placebo. The primary endpoint of the trial was death from coronary heart disease and the median duration of follow-up was 5.0 years (range, 4.0 to 6.2 years). […] Secondary endpoints of other related cardiovascular or metabolic disease events, and changes in clinical variables were also recorded in pravastatin-treated and placebo groups. All individuals included in the study had signed a written informed consent form and the study protocol was approved by the respective Institutional Review Boards (IRBs).
# For genotyping SNPs in CARE patient samples, DNA was extracted from blood samples using conventional DNA extraction methods such as the QIA-amp kit from Qiagen. Genotypes were obtained on an ABI PRISM® 7900HT Sequence Detection PCR system (Applied Biosystems, Foster City, Calif.) by kinetic allele-specific PCR, similar to the method described by Germer et al. (Germer S., Holland M. J., Higuchi R. 2000, Genome Res. 10: 258-266).
# Statistical analysis for association of SNPs with pravastatin treatment in cardiovascular events prevention (Table 8) was carried out using an overall logistic regression model that included an intercept, a parameter for the effect of a genotype containing two rare alleles versus a genotype containing no rare alleles, a parameter for the effect of a genotype containing one rare allele versus a genotype containing no rare alleles, a parameter for the effect of use of pravastatin versus the use of placebo, and parameters for the interaction effects between SNP genotypes and pravastatin use. The test of the overall model is a chi-square test with two degrees of freedom for analyses containing all three genotypes, and one degree of freedom for analyses containing two genotypes.
# Effect sizes were estimated through odds ratios (pravastatin group versus placebo) for carriers of each genotype (groups of 0, 1, and 2 minor allele carriers). The effect was considered to be significant if p-value for testing whether any of the interactions between SNP genotypes and pravastatin use were <0.05. […] Odds ratios less than one indicate that the specific SNP allele has a protective effect and odds ratios greater than one indicate that the specific SNP allele has an adverse effect.
# [1] = TLR5 hCV15871020, All Patients, 2 Rare Alleles, Prava arm
# [2] = TLR6 hCV1180648, All Patients, 0 Rare Alleles, Prava arm
# [3] = TLR6 hCV1180648, All Patients, 1 Rare Allele, Prava arm
# [4] = TLR6 hCV1180648, All Patients, 2 Rare Alleles, Prava arm
# [5] = TNF hCV7514879, All Patients, 0 Rare Alleles, Prava arm
# [6] = TNF hCV7514879, All Patients, 1 Rare Allele, Prava arm
# [7] = TNF hCV7514879, All Patients, 2 Rare Alleles, Prava arm
# [8] = VEGF hCV791476, All Patients, 0 Rare Alleles, Prava arm
# [9] = VEGF hCV791476, All Patients, 1 Rare Allele, Prava arm
# [10] = VEGF hCV791476, All Patients, 2 Rare Alleles, Prava arm
structure (smiles),measurement,setting,value
CC[C@H](C)C(=O)O[C@H]1C[C@H](O)C=C2C=C[C@H](C)[C@H](CC[C@@H](O)C[C@@H](O)CC(=O)O)[C@H]21 [pravastatin],"Fatal/Non-fatal Atherosclerotic CV Disease, n/total (%)",[1],(17.6%)
same,"Hosp. for Cardiovascular Disease, n/total (%)",[1],(14.7%)
same,"Total Cardiovascular Disease Events, n/total (%)",[1],(17.6%)
same,"Total Coronary Heart Disease Events, n/total (%)",[1],(11.8%)
same,Odds ratio pravastatin vs placebo,"TLR5 hCV15871020, Fatal/Non-fatal Atherosclerotic CV Disease, 0 rare alleles",0.84
same,Odds ratio pravastatin vs placebo,"TLR5 hCV15871020, Fatal/Non-fatal Atherosclerotic CV Disease, 1 rare allele",0.68
same,Odds ratio pravastatin vs placebo,"TLR5 hCV15871020, Fatal/Non-fatal Atherosclerotic CV Disease, 2 rare alleles",0.14
same,Odds ratio pravastatin vs placebo,"TLR5 hCV15871020, Hosp. for Cardiovascular Disease, 0 rare alleles",0.81
same,Odds ratio pravastatin vs placebo,"TLR5 hCV15871020, Hosp. for Cardiovascular Disease, 1 rare allele",0.72
same,Odds ratio pravastatin vs placebo,"TLR5 hCV15871020, Hosp. for Cardiovascular Disease, 2 rare alleles",0.09
same,Odds ratio pravastatin vs placebo,"TLR5 hCV15871020, Total Cardiovascular Disease Events, 0 rare alleles",0.81
same,Odds ratio pravastatin vs placebo,"TLR5 hCV15871020, Total Cardiovascular Disease Events, 1 rare allele",0.70
same,Odds ratio pravastatin vs placebo,"TLR5 hCV15871020, Total Cardiovascular Disease Events, 2 rare alleles",0.10
same,Odds ratio pravastatin vs placebo,"TLR5 hCV15871020, Total Coronary Heart Disease Events, 0 rare alleles",0.86
same,Odds ratio pravastatin vs placebo,"TLR5 hCV15871020, Total Coronary Heart Disease Events, 1 rare allele",0.64
same,Odds ratio pravastatin vs placebo,"TLR5 hCV15871020, Total Coronary Heart Disease Events, 2 rare alleles",0.10
same,"Cardiovascular Mortality, n/total (%)",[2],(3.5%)
same,"Fatal Atherosclerotic Cardiovascular Disease, n/total (%)",[2],(3.5%)
same,"Fatal Coronary Heart Disease, n/total (%)",[2],(3.3%)
same,"Cardiovascular Mortality, n/total (%)",[3],(2.5%)
same,"Fatal Atherosclerotic Cardiovascular Disease, n/total (%)",[3],(2.5%)
same,"Fatal Coronary Heart Disease, n/total (%)",[3],(1.9%)
same,"Cardiovascular Mortality, n/total (%)",[4],(6.9%)
same,"Fatal Atherosclerotic Cardiovascular Disease, n/total (%)",[4],(6.5%)
same,"Fatal Coronary Heart Disease, n/total (%)",[4],(6.2%)
same,"Fatal/Non-fatal MI (def & prob), n/total (%)",[5],(10.5%)
same,"Hosp. for Cardiovascular Disease, n/total (%)",[5],(40.9%)
same,"Total Cardiovascular Disease Events, n/total (%)",[5],(42.4%)
same,"Total Mortality, n/total (%)",[5],(6.0%)
same,"Fatal/Non-fatal MI (def & prob), n/total (%)",[6],(7.7%)
same,"Hosp. for Cardiovascular Disease, n/total (%)",[6],(38.9%)
same,"Total Cardiovascular Disease Events, n/total (%)",[6],(39.4%)
same,"Total Mortality, n/total (%)",[6],(4.7%)
same,"Fatal/Non-fatal MI (def & prob), n/total (%)",[7],(7.1%)
same,"Hosp. for Cardiovascular Disease, n/total (%)",[7],(35.7%)
same,"Total Cardiovascular Disease Events, n/total (%)",[7],(35.7%)
same,"Total Mortality, n/total (%)",[7],(3.6%)
same,Odds ratio pravastatin vs placebo,"TNF hCV7514879, Fatal/Non-fatal MI (def & prob), 0 rare alleles",0.80
same,Odds ratio pravastatin vs placebo,"TNF hCV7514879, Fatal/Non-fatal MI (def & prob), 1 rare allele",0.44
same,Odds ratio pravastatin vs placebo,"TNF hCV7514879, Fatal/Non-fatal MI (def & prob), 2 rare alleles",0.25
same,Odds ratio pravastatin vs placebo,"TNF hCV7514879, Hosp. for Cardiovascular Disease, 0 rare alleles",0.79
same,Odds ratio pravastatin vs placebo,"TNF hCV7514879, Hosp. for Cardiovascular Disease, 1 rare allele",0.76
same,Odds ratio pravastatin vs placebo,"TNF hCV7514879, Hosp. for Cardiovascular Disease, 2 rare alleles",0.20
same,Odds ratio pravastatin vs placebo,"TNF hCV7514879, Total Cardiovascular Disease Events, 0 rare alleles",0.79
same,Odds ratio pravastatin vs placebo,"TNF hCV7514879, Total Cardiovascular Disease Events, 1 rare allele",0.73
same,Odds ratio pravastatin vs placebo,"TNF hCV7514879, Total Cardiovascular Disease Events, 2 rare alleles",0.20
same,Odds ratio pravastatin vs placebo,"TNF hCV7514879, Total Mortality, 0 rare alleles",1.11
same,Odds ratio pravastatin vs placebo,"TNF hCV7514879, Total Mortality, 1 rare allele",0.57
same,Odds ratio pravastatin vs placebo,"TNF hCV7514879, Total Mortality, 2 rare alleles",0.19
same,"Cardiovascular Mortality, n/total (%)",[8],(4.2%)
same,"Fatal Atherosclerotic Cardiovascular Disease, n/total (%)",[8],(4.1%)
same,"Cardiovascular Mortality, n/total (%)",[9],(2.4%)
same,"Fatal Atherosclerotic Cardiovascular Disease, n/total (%)",[9],(2.4%)
same,"Cardiovascular Mortality, n/total (%)",[10],(2.0%)
same,"Fatal Atherosclerotic Cardiovascular Disease, n/total (%)",[10],(2.0%)
same,"odds ratio, pravastatin group vs control group, adverse coronary event","hCV2741051, one rare allele",0.43
same,"odds ratio, stroke in the pravastatin treated group","hCV2741051, one rare allele",0.21
same,"odds ratio, pravastatin group vs control group, adverse coronary event","hCV2741051, two rare alleles",0.26
same,"odds ratio, stroke in the pravastatin treated group","hCV2741051, two rare alleles",0.23
